Molecules are shown by their SMILES.

A short description of data set [1]: acute toxicity in mice, intraperitoneal (Miller and Tainter). The settings on record: mouse, in vivo, ip, read-out: Acute toxicity (mice) LD 50. The source says:
The acute toxicity was studied in mice intraperitoneally and the lethal doses estimated according to the method described by Miller and Tainter in Proc. Soc. Exper.

Data set [2] concerns apomorphine straightening. In words: test of antagonism to apomorphine straightening in mice, intraperitoneal (Gouret). The conditions noted are these: Mus musculus, ip, read-out: Apomorphine straightening ED 50. Format: in vivo.

Regarding `CCOc1nc(N)ncc1C(=O)NCC1CCCN1CC` (stereo not drawn) [77.0540], in data set [1], the LD50 was found to be 150 mg/kg. Further, the ED50 in data set [2] stood at 3 mg/kg.

As for `CCN(CCNC(=O)c1cnc(C)nc1OC)Cc1ccccc1` [compound 780327], in data set [1], the LD50 was determined as 170 mg/kg. For the same molecule, in data set [2], the ED50 was determined as 7 mg/kg.

Turning to `COc1nc(N)ncc1C(=O)NC1CCN(Cc2ccc(F)cc2)C1` (stereo not drawn) [compound 771274], in data set [1], the LD50 was found to be 100 mg/kg. Besides, the ED50 in data set [2] stood at 1.4 mg/kg.

Consider `CCN(CC)CCNC(=O)c1cnc(SC)nc1OC` [77.0806], for which the LD50 in data set [1] was determined as 150 mg/kg. The ED50 in data set [2] amounted to 30 mg/kg.

In the case of `CCN1CCCC1CNC(=O)c1cnc(OC)nc1OC` (stereo not drawn) [77.1243], in data set [1], the LD50 amounted to 150 mg/kg. The ED50 in data set [2] was determined as 15 mg/kg.

Regarding `CCN(CCNC(=O)c1cnc(C)nc1OC)Cc1ccc(F)cc1` [compound 780886], the LD50 in data set [1] amounted to 140 mg/kg. The ED50 in data set [2] was found to be 10 mg/kg.

In the case of `CCOc1nc(C)ncc1C(=O)NCC1CCCN1C` (stereo not drawn) [compound 781017], the LD50 in data set [1] was determined as 150 mg/kg. Besides, the ED50 in data set [2] turned out to be 4.1 mg/kg.

As to `COc1nc(N)ncc1C(=O)NC1CCN(Cc2ccccc2)C1` (stereo not drawn) [77.0958], the LD50 in data set [1] was determined as 150 mg/kg. Further, the ED50 in data set [2] was 1.5 mg/kg.

Take `COc1nc(N)ncc1C(=O)NCC1CCCN1Cc1ccc(F)cc1` (stereo not drawn) [77.1047]: the LD50 in data set [1] was found to be 130 mg/kg. Besides, the ED50 in data set [2] is 4.5 mg/kg.

For the molecule `COc1ccccc1N1CCN(CCNC(=O)c2cnc(N)nc2OC)CC1` [76.0994], the LD50 in data set [1] stood at 150 mg/kg. Moreover, the ED50 in data set [2] amounted to 3 mg/kg.

In the case of `COc1nc(C)ncc1C(=O)NCC1CCCN1C` (stereo not drawn) [compound 780680], in data set [1], the LD50 was 275 mg/kg. Besides, the ED50 in data set [2] was determined as 7.2 mg/kg.

As to `CCN1CCCC1CNC(=O)c1cc(S(N)(=O)=O)ccc1OC` (stereo not drawn) [SULPIRIDE, Sulpiride, reference compound], in data set [2], the ED50 is 37 mg/kg.

In the case of `CCOc1nc(N(C)C)ncc1C(=O)NC[C@@H]1CCCN1CC` [compound 781170], the LD50 in data set [1] stood at 120 mg/kg. Also, the ED50 in data set [2] was determined as 2.3 mg/kg.

Take `COc1nc(C)ncc1C(=O)NCCN1CCN(c2ccc(F)cc2)CC1` [compound 780686]: the LD50 in data set [1] amounted to 115 mg/kg. Moreover, the ED50 in data set [2] came out at 10 mg/kg.

For `COc1nc(C)ncc1C(=O)NC1CCN(Cc2ccccc2)C1` (stereo not drawn) [compound 780326], the LD50 in data set [1] turned out to be 130 mg/kg. Also, the ED50 in data set [2] worked out at 5.8 mg/kg.

Regarding `COc1nc(C)ncc1C(=O)NCc1cccn1C` [compound 780204], the LD50 in data set [1] stood at 400 mg/kg. Also, the ED50 in data set [2] was 50 mg/kg.

`CCN1CCCC1CNC(=O)c1cnc(C(C)C)nc1OC` (stereo not drawn) [compound 780907]: the LD50 in data set [1] came out at 120 mg/kg. Besides, the ED50 in data set [2] stood at 10 mg/kg.

On to `CCN1CCCC1CNC(=O)c1cnc(SC)nc1OC` (stereo not drawn) [77.0840], for which the LD50 in data set [1] amounted to 95 mg/kg. In data set [2], the ED50 was 10 mg/kg.

For `CCN1CCC[C@H]1CNC(=O)c1cnc(C)nc1OC` [compound 780648], the LD50 in data set [1] turned out to be 200 mg/kg. In addition, in data set [2], the ED50 was determined as 3.2 mg/kg.

Regarding `CCOc1nc(C)ncc1C(=O)NCCN(CC)Cc1ccccc1` [compound 780656], the LD50 in data set [1] stood at 140 mg/kg. The ED50 in data set [2] was found to be 6 mg/kg.

Consider `COc1nc(N(C)C)ncc1C(=O)NC1CCN(Cc2ccccc2)CC1` [77.1011], for which the LD50 in data set [1] stood at 25 mg/kg. The ED50 in data set [2] turned out to be 2.7 mg/kg.

On to `CCN(CCNC(=O)c1cnc(C)nc1OC)CC1CCCCC1` [compound 780866], for which the LD50 in data set [1] worked out at 120 mg/kg. Also, the ED50 in data set [2] stood at 4.7 mg/kg.

Turning to `COc1ccccc1N1CCN(CCNC(=O)c2cnc(C)nc2OC)CC1` [compound 780521], the LD50 in data set [1] was 140 mg/kg. Also, the ED50 in data set [2] came out at 5.25 mg/kg.

Consider `CCOc1nc(C)ncc1C(=O)NC[C@@H]1CCCN1CC` [compound 780905], for which, in data set [1], the LD50 is 175 mg/kg. In addition, the ED50 in data set [2] worked out at 0.88 mg/kg.

Regarding `CCN1CCCC1CNC(=O)c1cnc(NC)nc1OC` (stereo not drawn) [compound 771226], the LD50 in data set [1] turned out to be 110 mg/kg. Besides, the ED50 in data set [2] is 1.4 mg/kg.

For the molecule `CCN(CCNC(=O)c1cnc(N)nc1OC)Cc1ccccc1` [77.0489], the LD50 in data set [1] is 330 mg/kg. Besides, in data set [2], the ED50 turned out to be 3 mg/kg.

As to `COc1nc(C)ncc1C(=O)NC1CCN(Cc2ccc(F)cc2)C1` (stereo not drawn) [compound 780560], the LD50 in data set [1] stood at 100 mg/kg. Besides, the ED50 in data set [2] came to 3 mg/kg.

As for `COc1nc(C)ncc1C(=O)NC1CCN(Cc2ccccc2)CC1` [77.0878], the LD50 in data set [1] amounted to 150 mg/kg. Further, the ED50 in data set [2] came out at 10 mg/kg.

Take `COc1nc(C)ncc1C(=O)NCCN1CCN(c2ccccc2)CC1` [compound 780522]: the LD50 in data set [1] was 130 mg/kg. The ED50 in data set [2] was 10 mg/kg.

Take `COc1nc(N)ncc1C(=O)NCC1CCCN1C` (stereo not drawn) [compound 780079]: in data set [1], the LD50 is 225 mg/kg. Further, the ED50 in data set [2] amounted to 11 mg/kg.

For `COc1nc(N)ncc1C(=O)NCCNc1ccccc1` [77.0580], the LD50 in data set [1] was 400 mg/kg. Further, the ED50 in data set [2] is 30 mg/kg.

For `C=CCN1CCCC1CNC(=O)c1cnc(C)nc1OC` (stereo not drawn) [compound 780784], the LD50 in data set [1] stood at 280 mg/kg. Also, the ED50 in data set [2] is 5.5 mg/kg.

With `COc1nc(C)ncc1C(=O)NCC1CCCN1CC1CCCCC1` (stereo not drawn) [compound 780836], the LD50 in data set [1] is 140 mg/kg. Moreover, the ED50 in data set [2] was found to be 9 mg/kg.

With `CCOc1nc(C)ncc1C(=O)NCC1CCCN1CC` (stereo not drawn) [compound 780336], the LD50 in data set [1] worked out at 170 mg/kg. The ED50 in data set [2] is 1.8 mg/kg.

Take `COc1nc(N)ncc1C(=O)NCC1CCCN1Cc1ccccc1` (stereo not drawn) [77.0880]: in data set [1], the LD50 came to 180 mg/kg. For the same molecule, in data set [2], the ED50 is 9 mg/kg.

Regarding `CCN(CC)CCNC(=O)c1cnc(N)nc1OC` [76.0745], in data set [1], the LD50 amounted to 650 mg/kg. Besides, in data set [2], the ED50 worked out at 30 mg/kg.

With `CCN1CCCC1CNC(=O)c1cnc(C)nc1OC(C)C` (stereo not drawn) [compound 780561], in data set [1], the LD50 was 170 mg/kg. Besides, the ED50 in data set [2] is 3.3 mg/kg.

In the case of `CCCCN1CCCC1CNC(=O)c1cnc(N)nc1OC` (stereo not drawn) [77.1012], the LD50 in data set [1] was found to be 110 mg/kg. Besides, the ED50 in data set [2] was determined as 7 mg/kg.

Turning to `CCCOc1nc(C)ncc1C(=O)NCC1CCCN1CC` (stereo not drawn) [compound 780432], in data set [1], the LD50 was 170 mg/kg. Also, in data set [2], the ED50 was 7.5 mg/kg.

For the molecule `COc1nc(N)ncc1C(=O)NCCN(C)Cc1ccccc1` [77.0512, 1-[5-(2-amino 4-methoxypyrimidinyl)carboxamido] 2-[N-methyl N-benzylamino] ethane], the LD50 in data set [1] came out at 400 mg/kg. The ED50 in data set [2] is 10 mg/kg.

Regarding `COc1ncncc1C(=O)NC1CCN(Cc2ccccc2)CC1` [77.0886], the LD50 in data set [1] turned out to be 125 mg/kg. In addition, the ED50 in data set [2] turned out to be 17.5 mg/kg.

For the molecule `CCCOc1nc(N)ncc1C(=O)NCC1CCCN1CC` (stereo not drawn) [77.0621], the LD50 in data set [1] stood at 150 mg/kg. Also, the ED50 in data set [2] is 15 mg/kg.

With `COc1nc(C)ncc1C(=O)NCC1CCCN1Cc1ccccc1` (stereo not drawn) [compound 780458], in data set [1], the LD50 was found to be 140 mg/kg. The ED50 in data set [2] was 13 mg/kg.

As for `CCN1CCC[C@H]1CNC(=O)c1cnc(N(C)C)nc1OC` [compound 781171], in data set [1], the LD50 turned out to be 100 mg/kg. For the same molecule, the ED50 in data set [2] came out at 3 mg/kg.

In the case of `CCN1CCCC1CNC(=O)c1cnc(N)nc1OC` (stereo not drawn) [76.0843], the LD50 in data set [1] came out at 300 mg/kg. Besides, in data set [2], the ED50 was found to be 6 mg/kg.

Consider `CCOc1nc(CC)ncc1C(=O)NCC1CCCN1CC` (stereo not drawn) [compound 781022], for which the LD50 in data set [1] stood at 140 mg/kg. For the same molecule, the ED50 in data set [2] was 3 mg/kg.

For `COc1nc(N)ncc1C(=O)NCCN1CCc2ccccc2C1` [77.0862, 1-[5-(2-amino 4-methoxypyrimidinyl)carboxamido] 2-[(tetrahydro 1,2,3,4)isoquinolin-2-yl] ethane], the LD50 in data set [1] was 300 mg/kg. For the same molecule, the ED50 in data set [2] was 30 mg/kg.

Source of the values: US4250178A, “Amides derived from carboxyl-5 pyrimidines” (Delalande S.A., priority 1978, dated 1981).
